Measured values as given in patent publication US8435978B2, “Substituted sulfonamide compounds” (Gruenenthal GmbH, priority 2006, dated 2013).

What was measured:
[1] = tested on: Bradykinin Receptor 1 (B1R)-mediated formation of IL-6 in IMR-90 fibroblasts; test: Inhibition of the B1R-mediated formation of IL-6 in IMR-90 fibroblasts (IL-6 ELISA); type: cell-based, human; conditions: antagonist 10 μM
Source text: The pro-inflammatory cytokines TNFα (or IL-1) lead in various cell types, such as, for example, fibroblasts, to an activation, which brings about inter alia enhanced expression of B1R. Subsequent stimulation of these cells with a B1R agonist results in the formation of further pro-inflammatory cytokines, such as, for example, IL-6. The chronification of inflammations is thereby promoted. Treatment with a B1R antagonist should lead to inhibition of the B1R agonist-induced IL-6 formation. By way of example, a B1R antagonist identified in the FLIPR assay was tested in this respect.
The human fibroblast cell line IMR-90 (ATCC, CCL-186) was passaged in culture medium (Ham's F12 nutrient mixture, Gibco Invitrogen GmbH, Karlsruhe Germany with 10% FBS, fetal bovine serum, Gibco, Invitrogen GmbH, Karlsruhe Germany; 0.1 mM non-essential amino acids, Gibco, 11140-035, 1 mM sodium pyruvate, Euro Clone, ECM0542D; 1.5 g/l sodium bicarbonate, Euro Clone, ECM0980D) on 80 cm^2 bottles (Nunc; 178905) (ratio:1:2 to 1:6; medium replaced every 3-4 days) and plated out for experiments on 96-well plates (Greiner bio-one; No. 655180) with 1×10^5 cells per well. The cells are incubated overnight at 37° C. and 5% CO2.
For activation with TNFα (human, recombinant, expressed in E. coli, SIGMA-ALDRICH T6674, 10 ng/ml) alone or TNFα combined with the human B1R agonist Lys-Des-Arg^9-bradykinin (Lys-Des-Arg^9-BK), the IMR-90 fibroblasts were incubated overnight at 37° C. and 5% CO2 in culture medium. The final concentrations of Lys-Des-Arg^9-BK were 1000 nM or 10 nM. Some IMR-90 stimulation batches additionally contained the B1R antagonist of Example 8 in a final concentration of 10 μM. 24 hours after activation, in each case 150 μl of culture medium were removed from all the different stimulation batches and were transferred to a new plate and frozen. After thawing of the supernatants, the IL-6 content was determined by means of a commercially available IL-6 Elisa.
ELISA Assay (Procedure, Modified According the Manufacturer's Specifications):
Elisa kit: from: BIOSOURCE; CytoSets™, Art. No.: CHC 1264
The above-described processes were carried out with Example compound 8.

[2] = tested on: formalin-induced pain behavior; test: Formalin test in the mouse (phase 2, chronic pain component); type: in vivo; conditions: iv, 5 min. before formalin injection, observation 21 to 24 minutes after formalin
Method: The formalin test (Dubuisson, D. and Dennis, S. G., 1977, Pain, 4, 161-174) represents a model for both acute and chronic pain. By means of a single formalin injection into the dorsal side of a rear paw, a biphasic nociceptive reaction is induced in freely mobile test animals; the reaction is detected by observing three behaviour patterns which are clearly distinguishable from one another. The reaction is two-phase: phase 1=immediate reaction (duration up to 10 min., shaking of the paw, licking), phase 2=late reaction (after a rest phase; likewise shaking of the paw, licking; duration up to 60 min.). The 1st phase reflects a direct stimulation of the peripheral nocisensors with high spinal nociceptive input (acute pain phase); the 2nd phase reflects a spinal and peripheral hypersensitization (chronic pain phase). In the studies described here, the chronic pain component (phase 2) has been evaluated. Formalin in a volume of 20 μl and a concentration of 1% is administered subcutaneously into the dorsal side of the right rear paw of each animal. The specific changes in behavior, such as lifting, shaking or licking of the paw (score 3, Dubuisson & Dennis, 1977), are observed and recorded in the observation period of 21 to 24 minutes following the formalin injection. The behaviour of the animals after administration of the substance (n=10 per dose of substance) was compared with a control group which received vehicle (n=10). Based on the quantification of the pain behavior, the action of the substance in the formalin test was determined as the change in percent compared with the control. The ED50 calculations (ED50=mean effective dose) were carried out by regression analysis according to the method of Litchfield and Wilcoxon (Litchfield, J. T., Wilcoxon, J. J., 1949, J. Pharmacol. Exp. Ther. 96, 99-113). The time of administration before the formalin injection was chosen in dependence on the mode of administration of the compounds according to the invention (intravenous: 5 min.).

[3] = TNFα 10 ng/ml, 24 hours after activation

## COc1cc(C)c(S(=O)(=O)N2CCCCC2COCC(=O)N2CCN(C3CCN(C)CC3)CC2)c(C)c1 (stereo not drawn) [Example 8, 2-[1-(4-methoxy-2,6-dimethyl-phenylsulfonyl)-piperidin-2-ylmethoxy]-1-[4-(1-methyl-piperidin-4-yl)-piperazin-1-yl]-ethanone]
[1]; TNFα + relatively high dose of Lys-Des-Arg^9-BK (1000 nM)
  inhibition of the activation of IL-6 formation: still partially inhibited
[1]; TNFα + relatively low dose of Lys-Des-Arg^9-BK (10 nM)
  inhibition of the activation of IL-6 formation: eliminated almost completely
[1]; [3]
  Production of IL-6 (pg/ml) by IMR-90 fibroblasts, TNFα + Lys-Des-Arg^9-BK (10 nM): 119 pg/mL
  Production of IL-6 (pg/ml) by IMR-90 fibroblasts, TNFα + Lys-Des-Arg^9-BK (1000 nM): 483 pg/mL
  Production of IL-6 (pg/ml) by IMR-90 fibroblasts, TNFα alone: 136 pg/mL
[2]
  ED50: 12.8 mg/kg
